23 compounds from patent publication US10975078B2, “Fused indazole pyridone compounds as antivirals” (priority 2017, dated 2021) can be followed below.

The assay relates to HBsAg secretion, HepG2-Clone42 cells (Tet-inducible HBV-expressing, HBV ayw strain). Put plainly: HBsAg assay (HBsAg ELISA, secreted HBV sAg from HepG2-Clone42 cells). The assay is classed as cell-based. The procedure: HepG2-Clone42, a Tet-inducible HBV-expressing cell line with a stably integrated 1.3 mer copy of the HBV ayw strain, was generated based on the Tet-inducible HepAD38 cell line with slight modifications. Ladner S K, et al., Antimicrobial Agents and Chemotherapy. 41(8):1715-1720 (1997). HepG2-Clone42 cells were cultured in DMEM/F-12+Glutamax™ (Life Technologies, Carlsbad, Calif., USA), supplemented with 10% fetal bovine serum (Life Technologies), G-418 (Corning, Manassas, Va., USA) at a final concentration of 0.5 mg/mL, and 5 μg/mL Doxycycline (Sigma, St. Louis, Mo., USA) and maintained in 5% CO2 at 37° C.
HepG2-Clone42 cells were seeded into black clear-bottom 96-well plates at a concentration of 6.0×10^4 cells/well. 24 hours post-seeding, the cells were treated with 200 μl/well of media containing five-fold serial dilutions of compounds in DMSO. DMSO alone was used as the no drug control. The final DMSO concentration in all wells was 0.5%.
The HBsAg ELISA kit (Alpha Diagnostic International, San Antonio, Tex., USE, Catalog #4110) was used to determine the level (semi-quantitative) of secreted HBV sAg. The HBSAg ELISA assay was performed following the manufacturer's protocol as described.
Step 1. Pipet 100 μL each of compound or DMSO treated samples into HBsAg ELISA plates. Seal plates and incubate at room temp for 60 minutes.
Step 2. Aspirate samples and wash three times with Wash Buffer. Dispense 100 μL of antibody-HRP conjugate to each well. Incubate at room temp for 30 minutes.
Step 3. Aspirate samples and wash three times with Wash Buffer. Add 100 μL of TMB Substrate to all wells and incubate 15 minutes at room temp.
Step 4. Dispense 100 μL of Stop Solution to each well. Measure absorbance of ELISA plate at 450 nm.
Dose-response curves were generated and the EC50 value was defined as the compound concentration at which HBsAg secretion was reduced 50% compared to the DMSO control.
EC50 values were determined as follows:
Determine the percent of HBsAg secretion inhibition. Calculate the percent inhibition on of HBsAg secretion inhibition using the following equation: […]
where XC is the absorbance signal from compound-treated well; MB is average absorbance signal (background signal) for column 12 (no cells+HBsAg ELISA sample buffer) and MD is average absorbance signal from DMSO-treated wells. Then calculate EC50 values by non-linear regression using a four parameter curve logistic equation.
The curve fit model employed is XLFit Dose Response One Site Model 204: y=(A+((B−A)/(1+(10^((C−x)*D))))) where A is the minimum y value, B is the maximum y value, C is the log EC50 value, and D is the slope factor. In the following table+≥100 nM; 100 nM>++≥1 nM; 1 nM>+++
For orientation: In an ELISA, binding on a coated surface is turned into a signal by an enzyme label.

Where [1] appears, read: read-out: HBsAg, EC50 = concentration at which HBsAg secretion was reduced 50% compared to DMSO control.
[2] abbreviates: Hepatitis B virus, read-out: HBsAg (nM), EC50 = concentration at which HBsAg secretion was reduced 50% compared to DMSO control.

SMILES strings stand for the structures. Like-named read-outs stand apart in the source and are kept apart here.

For the compound `COCCCOc1cccc2c3n(nc12)CC(C(C)(C)C)n1cc(C(=O)O)c(=O)cc1-3` (single isomer, unassigned) [Example 2.1-II, 6-(tert-butyl)-10-(3-methoxypropoxy)-2-oxo-6,7-dihydro-2H-pyrido[2′,1′:3,4]pyrazino[1,2-b]indazole-3-carboxylic Acid], under setting [1], the EC50 was 1 to 100 nM.

Turning to `CC(C)Oc1cccc2c3n(nc12)CC(C(C)(C)C)n1cc(C(=O)O)c(=O)cc1-3` (single isomer, unassigned) [Example 2.47-I, 6-(tert-butyl)-10-isopropoxy-2-oxo-6,7-dihydro-2H-pyrido[2′,1′:3,4]pyrazino[1,2-b]indazole-3-carboxylic Acid], the EC50 under setting [1] is above 100 nM. In the case of `CC(C)(C)C1Cn2nc3c(OCCO)cccc3c2-c2cc(=O)c(C(=O)O)cn21` (racemic) [Example 2.18, 6-(tert-butyl)-10-(2-hydroxyethoxy)-2-oxo-6,7-dihydro-2H-pyrido[2′,1′:3,4]pyrazino[1,2-b]indazole-3-carboxylic Acid], the EC50 under setting [2] lay within 1 to 100 nM. The same measure, in the same setting: the figure for `COCCOCCOc1cccc2c3n(nc12)CC(C(C)(C)C)n1cc(C(=O)O)c(=O)cc1-3` (racemic) [Example 2.12, 6-(tert-butyl)-10-(2-(2-methoxyethoxy)ethoxy)-2-oxo-6,7-dihydro-2H-pyrido[2′,1′:3,4]pyrazino[1,2-b]indazole-3-carboxylic Acid] is 1 to 100 nM. Consider `COCCCOc1cccc2c3n(nc12)CC(C(C)(C)COC)n1cc(C(=O)O)c(=O)cc1-3` (single isomer, unassigned) [Example 7.1-I, 6-(1-methoxy-2-methylpropan-2-yl)-10-(3-methoxypropoxy)-2-oxo-6,7-dihydro-2H-pyrido[2′,1′:3,4]pyrazino[1,2-b]indazole-3-carboxylic Acid], for which the EC50 under setting [1] was above 100 nM.

As for `CC(C)(C)C1Cn2nc3c(OCC4CCOC4)cccc3c2-c2cc(=O)c(C(=O)O)cn21` (racemic) [Example 2.8, 6-(tert-butyl)-2-oxo-10-((tetrahydrofuran-3-yl)methoxy)-6,7-dihydro-2H-pyrido[2′,1′:3,4]pyrazino[1,2-b]indazole-3-carboxylic Acid], under setting [2], the EC50 is below 1 nM.

Turning to `CC1(C)CCC2C1n1cc(C(=O)O)c(=O)cc1-c1c3cccc(F)c3nn12` (single isomer, unassigned) [Example 5.2-II, 12-fluoro-3,3-dimethyl-7-oxo-2,3,3a,14a-tetrahydro-1H,7H-cyclopenta[5,6]pyrido[2′,1′:3,4]pyrazino[1,2-b]indazole-6-carboxylic Acid], under setting [1], the EC50 is above 100 nM. On to `CN(C)CCCOc1cccc2c3n(nc12)CC(C(C)(C)C)n1cc(C(=O)O)c(=O)cc1-3` (racemic) [Example 2.43, 6-(tert-butyl)-10-(3-(dimethylamino)propoxy)-2-oxo-6,7-dihydro-2H-pyrido[2′,1′:3,4]pyrazino[1,2-b]indazole-3-carboxylic Acid], for which, under setting [2], the EC50 is above 100 nM. Same read-out and setting: the figure for `CC(C)(C)C1Cn2nc3c(OC4CCOCC4)cccc3c2-c2cc(=O)c(C(=O)O)cn21` (racemic) [Example 2.38, 6-(tert-butyl)-2-oxo-10-((tetrahydro-2H-pyran-4-yl)oxy)-6,7-dihydro-2H-pyrido[2′,1′:3,4]pyrazino[1,2-b]indazole-3-carboxylic Acid] is 1 to 100 nM; for `COCCCOc1cccc2c3n(nc12)CC(C(C)(C)C)n1cc(C(=O)O)c(=O)cc1-3` (racemic) [Example 2.31, 6-(tert-butyl)-10-(3-methoxypropoxy)-2-oxo-6,7-dihydro-2H-pyrido[2′,1′:3,4]pyrazino[1,2-b]indazole-3-carboxylic Acid] it is below 1 nM; for `CC(C)(C)C1Cn2nc3c(OC[C@@H]4CCC(=O)N4)cccc3c2-c2cc(=O)c(C(=O)O)cn21` (single isomer, unassigned) [Example 2.33-I] it is above 100 nM. For `COCCCOc1cccc2c3n(nc12)CC(C(C)(C)C)n1cc(C(=O)O)c(=O)c(F)c1-3` (single isomer, unassigned) [Example 8.1-II, 6-(tert-butyl)-1-fluoro-10-(3-methoxypropoxy)-2-oxo-6,7-dihydro-2H-pyrido[2′,1′:3,4]pyrazino[1,2-b]indazole-3-carboxylic Acid], the EC50 under setting [1] was in the range of 1 to 100 nM.

Take `CC(C)(C)C1Cn2nc3c(OC4CCNCC4)cccc3c2-c2cc(=O)c(C(=O)O)cn21` (racemic) [Example 2.27, 6-(tert-butyl)-2-oxo-10-(piperidin-4-yloxy)-6,7-dihydro-2H-pyrido[2′,1′:3,4]pyrazino[1,2-b]indazole-3-carboxylic Acid]: the EC50 under setting [2] is above 100 nM. Still for that read-out and setting: the figure for `CC(C)(C)C1Cn2nc3c(OCCCO)cccc3c2-c2cc(=O)c(C(=O)O)cn21` (racemic) [Example 2.17, 6-(tert-butyl)-10-(3-hydroxypropoxy)-2-oxo-6,7-dihydro-2H-pyrido[2′,1′:3,4]pyrazino[1,2-b]indazole-3-carboxylic Acid] is below 1 nM; for `CN(C)C(=O)COc1cccc2c3n(nc12)CC(C(C)(C)C)n1cc(C(=O)O)c(=O)cc1-3` (racemic) [Example 2.36, 6-(tert-butyl)-10-(2-(dimethylamino)-2-oxoethoxy)-2-oxo-6,7-dihydro-2H-pyrido[2′,1′:3,4]pyrazino[1,2-b]indazole-3-carboxylic Acid] it is below 1 nM; for `CC(C)(C)C1Cn2nc3c(OCC4(C#N)CC4)cccc3c2-c2cc(=O)c(C(=O)O)cn21` (racemic) [Example 2.46, 6-(tert-butyl)-10-((1-cyanocyclopropyl)methoxy)-2-oxo-6,7-dihydro-2H-pyrido[2′,1′:3,4]pyrazino[1,2-b]indazole-3-carboxylic Acid] it is 1 to 100 nM. Consider `CC(C)(C)C1Cn2nc3ccccc3c2-c2cc(=O)c(C(=O)O)cn21` (single isomer, unassigned) [Example 1.5-I, 6-(tert-butyl)-2-oxo-6,7-dihydro-2H-pyrido[2′,1′:3,4]pyrazino[1,2-b]indazole-3-carboxylic acid], for which the EC50 under setting [1] lay within 1 to 100 nM.

Take `COCCCOc1cccc2c3n(nc12)CC(C(C)(C)C)n1cc(C(=O)O)c(=O)cc1-3` (single isomer, unassigned) [Example 2.1-I, 6-(tert-butyl)-10-(3-methoxypropoxy)-2-oxo-6,7-dihydro-2H-pyrido[2′,1′:3,4]pyrazino[1,2-b]indazole-3-carboxylic Acid]: under setting [2], the EC50 is below 1 nM.

On to `CC(C)(C)C1Cn2nc3c(OCC4COCCO4)cccc3c2-c2cc(=O)c(C(=O)O)cn21` (racemic) [Example 2.22, 10-((1,4-dioxan-2-yl)methoxy)-6-(tert-butyl)-2-oxo-6,7-dihydro-2H-pyrido[2′,1′:3,4]pyrazino[1,2-b]indazole-3-carboxylic Acid], for which the EC50 under setting [2] is 1 to 100 nM.

Regarding `CC(C)(C)C1Cn2nc3c(OCCCOC(F)(F)F)cccc3c2-c2cc(=O)c(C(=O)O)cn21` (racemic) [Example 2.19, 6-(tert-butyl)-2-oxo-10-(3-(trifluoromethoxy)propoxy)-6,7-dihydro-2H-pyrido[2′,1′:3,4]pyrazino[1,2-b]indazole-3-carboxylic Acid], under setting [2], the EC50 was below 1 nM. On the same count and under the same terms, to `COc1ccc2c3n(nc2c1)CC(C(C)(C)C)n1cc(C(=O)O)c(=O)cc1-3` (single isomer, unassigned) [Example 1.2-I, 6-(tert-butyl)-11-methoxy-2-oxo-6,7-dihydro-2H-pyrido[2′,1′:3,4]pyrazino[1,2-b]indazole-3-carboxylic acid] belongs 1 to 100 nM. On to `COCCCOc1cccc2c3n(nc12)C1CCC(C)(C)C1n1cc(C(=O)O)c(=O)cc1-3` (single isomer, unassigned) [Example 6.1-I, 12-(3-methoxypropoxy)-3,3-dimethyl-7-oxo-2,3,3a,14a-tetrahydro-1H,7H-cyclopenta[5,6]pyrido[2′,1′:3,4]pyrazino[1,2-b]indazole-6-carboxylic Acid], for which the EC50 under setting [1] is above 100 nM. `CC(C)(C)C1Cn2nc3c(OC(F)F)cccc3c2-c2cc(=O)c(C(=O)O)cn21` (centres unmarked) [Example 2.5, 6-(tert-butyl)-10-(difluoromethoxy)-2-oxo-6,7-dihydro-2H-pyrido[2′,1′:3,4]pyrazino[1,2-b]indazole-3-carboxylic Acid]: under setting [2], the EC50 lay within 1 to 100 nM.
